# Data published in a melting point compilation (Tetko et al.; mined from patent text by program, amines drawn as free bases though some values may be those of a salt).
row,melting point,Compound
1,121 to 123 °C,CC(C#N)(COc1ccccc1C(F)(F)F)NC(=O)c1ccc(C(=O)c2ccccc2)cc1 (configuration not stated)
2,132 to 133 °C,CC(C#Cc1cccc(C2=NOC(c3ccc(F)cc3)C2)c1)N(O)C(N)=O (configuration not stated)
3,44 to 48 °C,CCCCn1c(=O)c2c(cnn2S(=O)(=O)CCC)n(CCCC)c1=O
4,201 to 203 °C,O=C1NC(Cc2cccs2)C(=O)NC1Cc1ccc(OCc2ccccc2)cn1 (configuration not stated)
5,102 to 103 °C,COCC1OC(OC(C)=O)C(OC(C)=O)C(OC(C)=O)C1OC(C)=O (configuration not stated)
6,111 to 113 °C,CC1=Nc2ccccc2N(Cc2ccccc2)C(=O)C1
7,107 to 108 °C,OC(c1ccc(Oc2ccc(Cl)cc2Cl)cc1)C(F)n1cncn1 (configuration not stated)
8,184 to 187 °C,CCOC(=O)C(=CNc1sc(-c2ccc(OC)cc2)c(C)c1C(=O)O)C(=O)OCC
9,141 to 142 °C,COC(=O)Cn1cccc(O)c1=O
10,287 °C,Cn1ncc2[nH]c3c(Br)cccc3c(=O)c21
11,229 °C,COc1cc2c(=O)n(CCN3CCCC3)c3c4cc5c(cc4nnc3c2cc1OC)OCO5
12,114 to 121 °C,COc1ccc(S(=O)(=O)C2(CCCCCCCCCC#Cc3ccc(Cl)cc3)SC(=O)NC2=O)cc1 (configuration not stated)
13,213 to 214 °C,COc1ccc2[nH]c(=O)c(-c3nnn(Cc4cccc(OCc5ccc6ccccc6n5)c4)n3)cc2c1
14,140 °C,CC(C)CC(NC(c1ccc(-c2ccc(S(C)(=O)=O)cc2)cc1)C(F)(F)F)C(=O)NCC#N (configuration not stated)
15,167 to 170 °C,CC1(C)CC(=O)c2cc(C#N)c(N3CCN(c4ccccc4)CC3)nc2C1
16,139 to 140 °C,Cn1nc2ccc(OCCCN3CCC(OC(c4ccccc4)c4ccccc4)CC3)nn2c1=O
17,90 to 92 °C,CCCN(C(C)C)C(C)CC1=C(c2ccc(OC)cc2)CCCNC1=O (configuration not stated)

row,melting point,Compound
1,105 to 106 °C,COC[C@H](O)CNc1ccc2cc(OCc3ccccc3)ccc2c1
2,154 to 161 °C,Cc1cc(Oc2ncc(C(F)(F)F)cc2Cl)ccc1N=C=O
3,102 to 104 °C,CCOC(=O)c1c(C(=O)Cc2c(CCNCCc3ccccc3)cc3c(c2OC)OCO3)ccc(OC)c1OC
4,160 °C,O=C1CCC(c2ccccc2)(c2ccccc2)C2CN(C(Cc3ccccc3)=NCc3ccccc3F)CC12 (configuration not stated)
5,128 to 130 °C,CCNC(=O)N(CC)C(=O)Nc1ccn(Cc2ccccc2Cl)c(=O)c1NC(=O)N[C@@H](CC(=O)O)c1ccc(C)cc1
6,275 to 277 °C,c1ccc(CN(Cc2ccccc2)c2cccc3c2ncc2nc4n(c23)CCC4)cc1
7,254 to 257 °C,CCC1=Nc2cc(CO)ccc2C(=O)C1
8,183 to 184 °C,COC(=O)c1[nH]c2ccccc2c1Oc1ccccc1N
9,292 to 295 °C,Cc1cc2c(=O)c3ccccc3oc2c2c1OC(C(=O)O)C2 (configuration not stated)
10,74 to 76 °C,CCCN(C1=C(O)C[C@@](CCc2cccc(O)c2)(C2CCCC2)OC1=O)c1ccccc1
11,238 to 239 °C,COc1ccc(C(=O)Nc2ncnc3c2ncn3[C@H]2CC[C@H](CC(=O)O)C[C@@H]2NC(=O)OC(C)(C)C)cc1
12,58 to 61 °C,CCCCC1=NC2(CCCC2)C(=O)N1Cc1ccc(-c2ccccc2S(=O)(=O)Nc2onc(C)c2C)c(CC(C)C)c1
13,203 °C,CCCc1c(C(=O)NC2CC2)nnn1-c1ccc(C(=O)NCC)cc1O
14,243 to 245 °C,CC(=O)OC1(C(C)=O)CCC2C3CCC4=CC(=O)CCC4(C)C3CCC21C (configuration not stated)
15,176 to 177 °C,O=c1cc2sc3ccccc3nc-2c2ccccc12
16,186 to 189 °C,CNC(=O)c1ccc2c(c1)C(=O)N1CCC[C@@H]1CO2
17,221 to 222 °C,CC1(CNC(=O)OCc2ccc(Cl)cc2)Cn2cc([N+](=O)[O-])nc2O1 (configuration not stated)

row,Compound,melting point
1,NC(=O)c1nnc2n1-c1ccc(Cl)cc1C(c1ccccc1Cl)=NC2,226 to 228 °C
2,"COc1cc2c(cc1O)CC1c3c(cc(OC)c(O)c3-2)CCN1CC1CC1 (single isomer, unassigned; (+))",80 to 84 °C
3,Fc1cc(F)c(F)c(N=C2NCCN2)c1F,147 to 148 °C
